Reference: US12514859B2, “Pyrazole pyrimidine derivative and uses thereof” (Yissum Research Development Company of the Hebrew …, priority 2015, dated 2026)

Columns and labels:
IRAK1/4 = settings: 10 μM; cited from earlier work
[1] = system: p53, DNA damage response (γH2AX); assay: p53 and DNA damage response activation in RKO cells (Western blot, primary screen and dose response); type: cell-based; settings: 16 hours, Western blot, average value
Experimental: (§1) Primary Screen in RKO cells for compounds having typical CKIα inhibitory activity (β-catenin and p53 stabilization and histone H2AX phosphorylation; see Elyada et al, Nature 2011 Feb. 17; 470(7334):409-13; Pribluda et al, Cancer Cell 2013 Aug. 12; 24(2):242-56). RKO colorectal cells were incubated with 10 μM of each of the compounds for 16 hours at 37° C. Cells were washed with PBS and cell pellets were incubated with ice cold protein lysis buffer containing protease inhibitor cocktail (1/200; Calbiochem) and phosphatase inhibitors (20 mM p-nitrophenyl phosphate (PNPP), 20 mM β-glycerophosphate and 300 nM okadaic acid). Western blot analysis was performed by means of standard techniques. Blots were incubated with antibodies detecting β-catenin (1/2,500; BD Transduction), p53 (DO-1&1801 hybridoma mix; dilution of 1:20 of supernatants from each), CKIα (C-19; 1/1,000; Santa Cruz Biotechnology) and phospho-histoneH2AX (S139; 1/1,000; Millipore). Secondary antibodies were HRP-linked goat anti-mouse, goat anti-rabbit and rabbit anti-goat antibodies (all 1/10,000; Jackson). Blots were developed using ECL (GE Healthcare).
(§2) Active compounds were further analyzed in a dose-response experiment (FIGS. 1A and 1B). Similar to the primary screen, RKO cells were incubated with descending concentrations of each of the active compounds for 16 hours at 37° C. Cell extract isolation and Western Blot analysis were similar to the primary screen.
(§3) Table 1 provides quantified information for compounds of the invention in activation of p53 and DNA damage response (DDR) and β-catenin stabilization as an indicator of Wnt pathway activation. p53 activation was determined according to the degree of protein stabilization in several Western blot assays (Western blot examples are shown in FIGS. 1A and 1B). […] In contrast, A35 started stabilizing p53 at […], with maximal stabilization at […] (FIG. 1A, upper right panel) and thus received an average value of +++ for p53 activation.

AML mice (MLL-AF9) = assay: MLL-AF9 acute myeloid leukemia (AML) mouse model; type: in vivo
Experimental: Generation of a mouse model of acute myeloid leukemia (AML) (FIG. 6) and treatment with the CKIα inhibitor A14 (FIGS. 7, 8 and 9) or A51 (FIGS. 11 and 12). To generate the MLL-AF9 Acute myeloid leukemia (AML) model, bone marrow (BM) cells from 10 week old wild type mouse were extracted and enriched for cKit expressing cells (EasySep #18757) and incubated overnight in RPMI supplemented with 15% FCS L-Glutamine, Pen/Strep (Biological Industries, Israel) and stem cell factor (SCF), IL-3, IL-6 and TPO (Peprotech). The culture was infected with MSCV-MLL-AF9-IRES-GFP retrovirus construct containing supernatant medium for 4 hours, then growth medium was added and infected cells were incubated at 37° C. for additional 24 h. The culture was then injected I.V. into sub lethally irradiated (500 rad) mice. Upon detectable steady increase of GFP expressing cells in the mice peripheral blood (checked by FACS analysis) and rise in leukocyte numbers and immature cells (detected by Wright-Giemsa stained blood films), mice were sacrificed and their BM was transferred (1st BMT) to sublethally irradiated WT hosts. Upon emergence of AML disease mice were sacrificed and 50,000 BM cells were transplanted (2nd BMT) into WT host mice. GFP expressing cells were monitored in the peripheral blood and upon detecting >10% GFP^+ in PB (day 11 after BMT) mice were treated with A14 inhibitor (FIG. 7A). A14 was administered by oral gavage once a day at a dose of 20 mg/kg for 3 days followed by 10 mg/kg/day for 6 more days. The inhibitor was dissolved in 1% methyl cellulose with 0.1% Tween 80 and 0.2% Poly-ethylene glycol (Vehicle). Control mice were treated with the vehicle only. Mice were monitored daily for cachexia, lethargy, and ruff coats, and moribund mice were sacrificed. For a single dose experiment (FIG. 11A) A51 was administered by oral gavage at a single dose of 20 mg/kg and mice were sacrificed 16 hours following treatment.
Complete blood counts. Peripheral venous blood was obtained from the mouse facial vein using standard techniques and analyzed using the auto hematology analyzer BC-2800 (Mindray) per manufacturer's instructions.
Single-dose treatment effect of a CKI inhibitor in AML mice and PD-L1 expression. AML mice were prepared by inoculating MLL-AF9 oncogene-transduced bone marrow cells to C57/BL6 mice. MLL-AF9 fusion represents one of a poor prognosis human AML induced by chromosomal translocation. 30 days after leukemia inoculation, the recipient mice have high white blood cells (WBC) counts (×10 higher than a normal mouse), and harbor >95% leukemia blasts in the bone marrow and 50% of the peripheral WBC in these mice are AML blasts. These mice have splenomegaly and their bones are pale and fragile due to the acute leukemia (FIG. 12).

IRAK1 [2] = target: T1, IRAK1 (Homo sapiens, UniProt P51617); assay: IRAK1 inhibition in RKO cells treated with TNFα (Western blot); type: cell-based
T1 construct: endogenous in cells; host or cells: RKO cells, stimulated with TNFα
T1 sequence (P51617 whole entry): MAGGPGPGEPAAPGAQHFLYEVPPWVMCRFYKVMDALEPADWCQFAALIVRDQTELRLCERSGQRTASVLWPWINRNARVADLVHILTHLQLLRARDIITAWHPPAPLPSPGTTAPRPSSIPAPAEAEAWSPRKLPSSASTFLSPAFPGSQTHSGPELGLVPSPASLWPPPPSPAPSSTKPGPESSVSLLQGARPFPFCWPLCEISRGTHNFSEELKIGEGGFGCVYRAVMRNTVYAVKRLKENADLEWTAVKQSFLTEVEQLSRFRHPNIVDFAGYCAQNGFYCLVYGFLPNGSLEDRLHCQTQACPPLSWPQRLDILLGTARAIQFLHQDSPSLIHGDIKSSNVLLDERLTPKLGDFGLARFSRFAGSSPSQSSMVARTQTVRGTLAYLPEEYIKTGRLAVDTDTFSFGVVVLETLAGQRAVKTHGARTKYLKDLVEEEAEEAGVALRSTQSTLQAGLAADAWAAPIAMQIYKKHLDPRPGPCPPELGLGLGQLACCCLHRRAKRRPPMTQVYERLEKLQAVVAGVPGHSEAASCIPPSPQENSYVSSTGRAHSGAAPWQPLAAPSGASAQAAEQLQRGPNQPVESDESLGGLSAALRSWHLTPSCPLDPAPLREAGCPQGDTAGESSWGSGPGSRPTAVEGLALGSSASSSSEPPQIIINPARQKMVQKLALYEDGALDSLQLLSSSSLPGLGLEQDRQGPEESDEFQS
Experimental: (§4) Cells were harvested and analyzed by Western blot. Blots were incubated with the following antibodies: Phospho-IRAK1 (Thr209), (A1074, AssayBiothechnology; 1/1,000), Phospho-IKKα/β (Ser176/180) (16A6, Cell Signaling; 1/1,000), IKKα (2682, cell signaling; 1/1,1000), IKK β (2370, cell signaling; 1/1,1000), Phospho-c-Jun (Ser 63) (9261, cell signaling; 1/1,1000), p53 (DO-1&1801 hybridoma mix; dilution of 1:20 of supernatants from each), CKIα (C-19; 1/1,000; Santa Cruz Biotechnology) and phospho-histoneH2AX (S139; 1/1,000; Millipore). Secondary antibodies were HRP-linked goat anti-mouse, goat anti-rabbit and rabbit anti-goat antibodies (all 1/10,000; Jackson). Inhibition of Phospho-IRAK1, Phospho-IKKα/β and Phospho-c-Jun indicate IRAK1 inhibition. p53 stabilization and phosphorylation of H2AX (γH2AX), a marker of DNA damage, indicative of CKIα kinase inhibition. CKIα protein levels serves as a loading control.
as §4, with “IRAK1 Inhibition with compounds of the invention. RKO cells were incubated for 16 hours at 37° C. with the indicated concentrations of compounds of the invention A51 (1 μM) and A14 (2 μM) (FIG. 10). At the indicated time points, RKO were treated with TNFα (100 units/ml). Cells” for “Cells”, “IKKβ” for “IKK β”, “Blots were developed using ECL (GE Healthcare). […] Also shown is” for “Inhibition of Phospho-IRAK1, Phospho-IKKα/β and Phospho-c-Jun indicate IRAK1 inhibition.”

Wnt/β-catenin = assay: β-catenin stabilization (Wnt pathway activation) in RKO cells (Western blot); type: cell-based; settings: 16 hours, Western blot
Experimental: as §1, §2, §3

IRAK1 [3] = target: T1, IRAK1; assay: Kd measurements for the interaction with IRAK1; type: binding
[4] = oral single dose 20 mg/Kg, 16 hrs

For `O=C(Nc1nc2ccccc2n1CCN1CCOCC1)c1cccc([N+](=O)[O-])c1` [Amgen's IRAK1-4 inhibitor], the “inhibition of IRAK1/4 in cell lines” value (IRAK1/4) is listed as 70%.

With `Cn1ncc(-c2nc(N[C@H]3CC[C@H](N)CC3)ncc2Cl)c1CC1CC1` [Compound A51, (1R, 4R)—N^1-(5-chloro-4-(5-(cyclopropylmethyl)-1-methyl-1H-pyrazol-4-yl)pyrimidin-2-yl)cyclohexane-1,4-diamine] the “DDR & p53 activity” value [1] was “++++ (++++ indicates maximal activation of p53 and DDR at >0.5 μM)”, the “leukemic spleen size (in words)” value (AML mice (MLL-AF9); [4]) was “shrinking of the leukemic spleen” and the “reduction of proportion of leukemic blasts (GFP+ cells) in the blood” value (AML mice (MLL-AF9); [4]) was > 90%. The “reduction of proportion of leukemic blasts (GFP+ cells) in the bone marrow” value (AML mice (MLL-AF9); [4]) was 50%, the “total leukemia cells in the blood (in words)” value (AML mice (MLL-AF9); [4]) was “massive reduction” and the “bone colour (in words)” value (AML mice (MLL-AF9); single dose 20 mg/Kg) was “Opaque bones turned to normal color”. For the same compound, the “IRAK1 activation and activation of the IRAK1 target IKK (in words)” value (IRAK1 [2]; RKO cells, Western blot, A51 1 μM, A14 2 μM, 16 hours, TNFα 100 units/ml) was “inhibition of IRAK1 activation”, the inhibition at 1 µM (IRAK1 [2]; RKO, read-out: inhibition of phospho-(active) IRAK1) was 100% and the β-Catenin activity (Wnt/β-catenin) was “+++ (+++ indicates maximal β-catenin or p53 stabilization at >2 μM)”. It also gave a Kd (IRAK1 [3]) of 2.9 nM.
